The subject of data set [1] is GM15850 cells (FRDA lymphoblastoid cell line). Put plainly: In-cell deacetylase inhibition assay (DAC assay). It is filed as cell-based, human. The following applies: 4 h incubation. The source says: Compound dilutions were made in 100% DMSO followed by parallel dilution in media with 2% DMSO. […] The final concentration of DMSO in each well was 0.2%.
The nature of data set [2]: Cytotoxicity, antiproliferation assay. Format: cell-based. The following applies: human, Hct116 cells.
In a further data set the test system is Hct116 cells. Put plainly: Cytotoxicity, antiproliferation assay. Format: cell-based. The note with it: for ratio cytotoxicity/DAC: Hct116 antiproliferation IC50 / in-cell DAC IC50.
Data set [3] concerns FXN gene transcription in primary lymphocytes from a FRDA patient. Put plainly: Frataxin mRNA assay (quantitative RT-PCR). It is filed as cell-based, human. The note with it: 10 μM compound, 48 h, primary lymphocytes from FRDA patient donor blood, normalized to DMSO control. As to the method:
In general, the activity of a compound against HDAC3 is related to its ability to increase FXN gene transcription. Compounds click-1 and -2 were assayed for their ability to increase transcription of the FXN gene in primary lymphocytes from a FRDA patient, as previously described.
Quantitative RT-PCR was used to estimate FXN mRNA levels after treatment with 10 μM compound for 48 h, and values were normalized to the level of FXN mRNA observed for a DMSO vehicle control.
Figure 3 Click-derived HDAC inhibitors induce frataxin gene expression in primary lymphocytes isolated from FRDA patient donor blood samples, compared to a standard pimelic o-aminobenzamide (109). Concentration of each compound is 10 μM.

A short description of data set [4]: Acid stability determination. Format: physicochemical. The following applies: pH = 2, 50 °C; for half-life at 100 µM: 0.01 M HCl in deionized water, read-out: t1/2 in acidic conditions (converted). As to the method: Immediately after mixing, an aliquot (100 μL) was sampled and analyzed by HPLC/UV. The area under the compound peak was determined and used as the time zero reference point. […] These were analyzed by the same HPLC/UV method and the area of the peak corresponding to the test compound was measured. Percent remaining at a given time point was then calculated as the ratio of the area under the peak after incubation to that at time zero times 100.

Another data set in a line: in vivo. The following applies: rat, 5 mg/kg.
The target of a further data set is recombinant HDAC1 (Homo sapiens, UniProt Q13547). Put plainly: HDAC enzyme inhibition assay (Fluor-de-Lys), HDAC1.
recombinant HDAC1, sequence (Q13547 whole entry): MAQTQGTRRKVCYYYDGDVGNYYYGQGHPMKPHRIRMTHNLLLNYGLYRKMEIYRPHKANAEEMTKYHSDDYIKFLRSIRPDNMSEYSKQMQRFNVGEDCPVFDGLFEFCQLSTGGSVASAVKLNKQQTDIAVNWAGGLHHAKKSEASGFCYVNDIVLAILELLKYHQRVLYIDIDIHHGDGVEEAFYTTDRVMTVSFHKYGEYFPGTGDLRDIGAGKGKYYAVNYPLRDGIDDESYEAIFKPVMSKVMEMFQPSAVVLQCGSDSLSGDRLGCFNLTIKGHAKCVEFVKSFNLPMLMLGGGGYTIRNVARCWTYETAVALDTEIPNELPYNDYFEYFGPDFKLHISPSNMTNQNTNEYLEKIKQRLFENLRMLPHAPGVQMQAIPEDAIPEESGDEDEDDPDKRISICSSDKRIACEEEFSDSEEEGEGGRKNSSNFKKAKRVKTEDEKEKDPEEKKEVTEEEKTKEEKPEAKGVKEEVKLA
A further data set concerns the target recombinant HDAC2 (Homo sapiens, UniProt Q92769). Put plainly: HDAC enzyme inhibition assay (Fluor-de-Lys), HDAC2.
The target in another data set is HDAC3/NcoR2 (Homo sapiens, UniProt O15379). Put plainly: HDAC enzyme inhibition assay (Fluor-de-Lys), HDAC3. The following applies: for selectivity for HDAC3 over HDAC1: ratio of IC50 values HDAC1/HDAC3.
HDAC3/NcoR2, sequence (O15379 whole entry): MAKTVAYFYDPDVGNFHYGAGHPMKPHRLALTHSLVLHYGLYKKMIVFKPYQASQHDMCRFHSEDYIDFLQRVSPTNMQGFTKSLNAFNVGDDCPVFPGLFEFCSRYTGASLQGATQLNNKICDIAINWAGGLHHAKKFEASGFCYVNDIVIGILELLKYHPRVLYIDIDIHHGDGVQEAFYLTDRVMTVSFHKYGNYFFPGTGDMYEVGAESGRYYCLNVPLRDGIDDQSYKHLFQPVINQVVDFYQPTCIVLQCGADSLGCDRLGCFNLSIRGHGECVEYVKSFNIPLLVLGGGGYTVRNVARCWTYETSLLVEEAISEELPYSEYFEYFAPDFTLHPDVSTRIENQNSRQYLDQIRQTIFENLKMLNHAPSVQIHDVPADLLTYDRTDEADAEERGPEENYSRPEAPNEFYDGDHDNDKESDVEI
HDAC3/NcoR2, sequence (Q9Y618 395-489 partner limits assumed): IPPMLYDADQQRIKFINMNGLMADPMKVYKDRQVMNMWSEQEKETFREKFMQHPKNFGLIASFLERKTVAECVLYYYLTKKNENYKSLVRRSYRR
A short description of data set [5]: Brain penetration in mouse. Format: in vivo. The following applies: brain and plasma.
The nature of data set [6]: Compound stability (method not described). Format: physicochemical. The following applies: conditions not stated. From the text:
All three azides 5, 8 and 16 were subjected to click chemistry with common intermediate 3 to give the corresponding triazole products click-1, click-2 and click-3 (Scheme 5). Each compound was characterized by ^1H-, ^13C-NMR and mass spectrometry.

recombinant HDAC2, sequence (Q92769 whole entry): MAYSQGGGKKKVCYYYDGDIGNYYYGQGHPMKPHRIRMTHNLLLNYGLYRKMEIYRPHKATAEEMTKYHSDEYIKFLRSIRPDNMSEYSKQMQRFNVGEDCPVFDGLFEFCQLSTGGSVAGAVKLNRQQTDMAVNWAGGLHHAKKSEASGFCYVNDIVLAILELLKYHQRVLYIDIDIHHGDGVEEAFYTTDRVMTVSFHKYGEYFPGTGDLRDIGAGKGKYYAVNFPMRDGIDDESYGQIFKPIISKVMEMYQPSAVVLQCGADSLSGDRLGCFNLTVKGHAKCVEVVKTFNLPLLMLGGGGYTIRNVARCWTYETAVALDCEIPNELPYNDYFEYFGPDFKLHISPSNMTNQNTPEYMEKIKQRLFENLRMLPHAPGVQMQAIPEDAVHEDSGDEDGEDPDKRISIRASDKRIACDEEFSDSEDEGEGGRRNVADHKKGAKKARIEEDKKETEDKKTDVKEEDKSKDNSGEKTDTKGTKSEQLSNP

Take `Nc1ccccc1NC(=O)/C=C/c1cn(CC=Cc2ccccc2)nn1` [Click-1, (E)-N-(2-Aminophenyl)-3-(1-cinnamyl-1H-1,2,3-triazol-4-yl)acrylamide]: the IC50 (in general, the concentration that gives 50% inhibition) turned out to be 5.6 µM in data set [1] (Homo sapiens); 23 µM in data set [2]; 0.066 µM at recombinant HDAC1; 0.477 µM at recombinant HDAC2; 0.028 µM against HDAC3/NcoR2. For the same compound, in the data set on Hct116 cells, the “ratio cytotoxicity/DAC” value came out at 4.1. Further, the “promoting transcription of the silenced FXN gene (FXN mRNA)” value in data set [3] was “highly active”. Besides, in data set [4], the half-life at 100 µM is 33 h. Also, the “improvement of acid half-life relative to HDACi 109” value in data set [4] came out at 5.5 fold. Further, the Kp (commonly tissue or fluid exposure divided by exposure in the circulation) in the data set “in vivo” (brain and plasma, intravenous) worked out at 0.33. Also, the highest level in “in vivo” (brain, iv) (Cmax) was 800 ng/g. Moreover, in the data set “in vivo” (brain, iv), the Tmax (commonly the time at which the peak concentration occurs) is 5 min. In addition, on HDAC3/NcoR2, the “selectivity for HDAC3 over HDAC1” value worked out at 2.4 fold.
With `Nc1ccccc1NC(=O)/C=C/c1cn(C/C=C/c2ccc3cc[nH]c3c2)nn1` [Click-2, (E)-3-(1-((E)-3-(1H-Indol-6-yl)allyl)-1H-1,2,3-triazol-4-yl)-N-(2-aminophenyl)acrylamide], the IC50 is 5.1 µM in [1] (Homo sapiens); 27 µM in [2]; 0.046 µM on recombinant HDAC1; 0.466 µM on recombinant HDAC2; 0.039 µM against HDAC3/NcoR2. The “ratio cytotoxicity/DAC” value in the data set with Hct116 cells amounted to 5.3. Also, in data set [3], the “promoting transcription of the silenced FXN gene (FXN mRNA)” value was “highly active”. Also, in data set [4], the half-life at 100 µM was 24 h. In data set [4], the “improvement of acid half-life relative to HDACi 109” value came to 4 fold. The compound further displayed a Kp in [5] of 0.03. For the same compound, the “selectivity for HDAC3 over HDAC1” value at HDAC3/NcoR2 was found to be 1.2 fold.
`Nc1ccccc1NC(=O)/C=C/c1cn(CCOc2ccc3cc[nH]c3c2)nn1` [Click-3, (E)-3-(1-(2-((1H-Indol-6-yl)oxy)ethyl)-1H-1,2,3-triazol-4-yl)-N-(2-aminophenyl)acrylamide] displayed an IC50 in [1] (Homo sapiens) of 29.4 µM. The stability result in [6] is “poor stability”.
On to `Nc1ccccc1NC(=O)c1ccc(CNC(=O)OCc2cccnc2)cc1` [MS-275, reference compound], for which the IC50 in data set [1] stood at 1.9 µM; in the data set on Hct116 cells (Hct116 cells), 1 µM.
For the compound `Cc1ccc(C(=O)NCCCCCC(=O)Nc2ccccc2N)cc1` [compound 109], the half-life at 100 µM in [4] is 6 h.

Source of the values: article PMC4060102, “Improved Histone Deacetylase Inhibitors as Therapeutics for the Neurodegenerative Disease Friedreich's Ataxia: A New Synthetic Route” (Pharmaceuticals, 2011).
